Converted amounts (≈) assume the structure as drawn. Where two headings read alike, the source gives them in different places.

The subject of one assay is Streptococcus mutans R9. The assay is described as follows: Minimum inhibitory concentration (MIC), microtitre broth dilution. It counts as cell-based. As to the method: The minimum inhibitory concentration of an antimicrobial agent (triclosan), and a flavour material or mixture of flavour materials (flavour), was determined by the following method.
A culture of the test strain Streptococcus mutans R9, deposited under the Budapest Treaty with National Collections of Industrial, Food and Marine Bacteria Limited, 23 St Machar Drive, Aberdeen, AB24 3RY, Scotland, UK on 22nd Jan. 2004 and given accession number NCIMB 41209) (may also be obtained from Prof. Philip Marsh, Centre for Applied Microbiology and Research, Salisbury, Wiltshire, SP4 OJG, UK) was grown in 250 ml of PM broth (containing: peptone, 2% w/v; tryptone, 1% w/v; yeast extract, 1% w/v; KCl, 0.25% w/v; of approximately pH 7), anaerobically at 37° C. for 48 hours. The absorbance of the culture at 540 nm (A540) was measured and adjusted if necessary to between 0.2-0.3 by diluting with fresh (i.e. sterile) PM broth. The culture was then diluted in Schaedler Anaerobic Broth (SAB) (Oxoid, Basingstoke, UK) in a ratio of 1 part culture to 25 parts broth to give a stock inoculum culture.
Determination of the MIC of Triclosan Against S. mutans
Triclosan powder was dissolved in AR-grade ethanol, to a concentration of 32,000 ppm (3.2% w/v). This was diluted in Schaedler Anaerobic Broth (SAB) to yield two stock triclosan solutions of concentrations: 320 ppm (0.032% w/v) and 64 ppm (0.0064% w/v).
200 μl of the 320 ppm triclosan stock solution was then added to the first and seventh well of row A on a standard 96-well microtitre plate. All remaining wells in this row were filled with 100% of sterile SAB. The contents of well 1 and the contents of well 7 were independently mixed by repeatedly sucking the contents up and down a pipette tip. 100 μl from well 1 was transferred to the second well of row A and 100 μl from well 7 was transferred to the eighth well of row A. This process was repeated along the row until the sixth and twelfth wells contained 200 μl. After mixing, 100 μl from wells 6 and 12 was discarded to waste. Each successive well in row A therefore contained a two-fold dilution of triclosan compared with the preceding well (i.e. 80 ppm in wells 2 and 8; 40 ppm in wells 3 and 9, etc.), resulting in wells 6 and 12 having a concentration of 5 ppm. A similar series of dilutions was repeated starting with the 64 ppm triclosan stock solution into row B on a microtitre plate. This gave a range of triclosan concentrations from 32 ppm to 1 ppm following the dilution process described. Finally, 100 μl of the pre-diluted stock inoculum culture was added to all wells, thus giving a final volume of 200 μl in each well. Wells 1 and 7 of row A therefore contained a final concentration of 160 ppm triclosan.
A blank plate was prepared for each of the two samples by repeating the process described above, except that 100 μl of SAB was added instead of bacterial culture. This plate was used as the control plate against which the test plate(s) could be read.
Test and control plates were sealed using autoclave tape and incubated for 48 hours anaerobically at 37° C.
A microtitre plate reader (Model MRX, Dynatech Laboratories) was preset to gently agitate the plates and mix the contents. The absorbance at 540 nm “A540” was used as a measure of turbidity resulting from bacterial growth. The control, un-inoculated plate for each set of samples was read first, and the plate reader then programmed to use the control readings to blank all other plate readings for the inoculated plates for the same set of test materials (i.e. removing turbidity and possible colour changes during incubation which are due to chemical interactions). Thus, the corrected readings generated were absorbances resulting from turbidity from bacterial growth. The MIC was taken as the lowest concentration of triclosan required to inhibit growth so that the change in absorbance during the incubation period was <0.2 A540. […]

A further assay has as its system S. mutans. Kind of assay: Potential synergy of triclosan with flavour materials (growth at sub-MIC concentrations). In kind it is cell-based, Streptococcus mutans. Particulars: for Synergy Shown: flavour material with triclosan against S. mutans; for 50% MIC without triclosan: growth of S. mutans with flavour material at 50% of its MIC alone; for 50% MIC and 8 ppm triclosan: growth of S. mutans with flavour material at 50% of its MIC plus 8 ppm triclosan. As to the method: This example describes a method for determining the potential synergy of triclosan with flavour materials against S. mutans.
A microtitre method using the procedure described below was employed.
Flavour materials were assessed at a final concentration of 50% of the MIC value determined according to Example 1 above, in combination with triclosan at 8 ppm, i.e. about 50% of the MIC value also determined as described in Example 1. Inhibition of growth by this combination of sub-MIC concentrations of flavour material and triclosan was taken to indicate antimicrobial synergy between the flavour material and triclosan.
100 μl of stock solution was added to the appropriate well of a standard 96-well microtitre plate. An equivalent volume of bacterial stock inoculum solution (prepared as in Example 1) was added giving the desired dilution in each well. A blank plate was prepared using the same process except that 100 μl of SAB was added instead of bacterial culture. The protocol for incubation, reading of results and interpretation was as described in Example 1.

Assay [1] concerns protease activity (arg-gingipain) of Porphyromonas gingivalis. Kind of assay: Protease enzyme assay (BAPNA substrate), synergy of flavour material with antimicrobial agent. In kind it is biochemical, Porphyromonas gingivalis W50. Particulars: compared with flavour material alone; for Classes of Synergy, increase in inhibition; Antimicrobial Agent Triclosan: flavour material 2500 ppm and 5000 ppm plus sub-MIC triclosan; for Classes of Synergy, increase in inhibition; Antimicrobial Agent Zinc Sulphate: flavour material 2500 ppm and 5000 ppm plus sub-MIC zinc sulphate. The protocol: The following assay was used to investigate the inhibition of protease activity (arg-gingipain) of the micro-organism Porphyromonas gingivalis (implicated in gum disease) by a flavour material or mixture of flavour materials.
Fresh buffer was prepared immediately before beginning the assay in the following manner: 3.029 g of Tris Base (Sigma, Poole, UK), 394 mg of L-cysteine hydrochloride (Sigma, Poole, UK) and 367.5 mg of calcium chloride dihydrate (Sigma, Poole, UK) were dissolved in 150 ml deionised water. In order to allow for pH differences resulting from any variation in ambient temperature, the temperature of the buffer was taken. The pH of TRIS buffers varies with temperature i.e. Δ pH=−0.031/° C. This assay should be carried out at a temperature of 30° C., with the buffer having a pH of 8.0. Thus, if the measured temperature of the buffer is, for example, 22° C. (room temperature) the pH should be adjusted to 8.24 with 2M hydrochloric acid, in order to give the desired conditions i.e. pH=8.0 at 30° C. After adjusting the pH, the buffer was made up to 200 ml with deionised water and incubated in a water bath at 30° C. for approximately one hour to reach temperature equilibrium before commencing the assay.
The enzyme substrate BAPNA (DL-α-benzoyl-DL-arginyl-p-nitro-anilide) (Sigma) is the synthetic substrate for the protease enzyme produced by the bacterium Porphyromonas gingivalis. The substrate is degraded by enzymes which show specificity for cleaving adjacent to arginine residues. This cleavage yields a yellow nitro-aniline product, which can be readily detected spectrophotometrically at 405 nm. 10.87 mg of the BAPNA substrate was added to 0.5 ml of dimethylsulphoxide (DMSO) and thoroughly dissolved. 9.5 ml of deionised water was then added. The resulting solution was then mixed by vortex and incubated at 30° C. in a water bath for about one hour before commencing the assay to allow temperature equilibration.
Porphyromonas gingivalis W50 ATCC 53978 (American Type Culture Collection (ATCC), P.O. Box 1549, Manassas, Va. 20108, USA) (may also be obtained from Prof. Philip Marsh, Centre for Applied Microbiology and Research, Salisbury, Wiltshire, SP4 OJG, UK) was sub-cultured from frozen stock cultures onto Schaedler Anaerobic Agar (Oxoid, Basingstoke, UK), and supplemented with 5% v/v horse blood (E&O Laboratories, Bonnybridge, Scotland, FK4 2HH). The plates were incubated at 37° C. in an anaerobic cabinet (Don Whitley Scientific, Shipley, UK) for 3-5 days. Single colonies grown on these plates were then inoculated into 250 ml Schaedler Anaerobic Broth (SAB) contained in bottles with cotton wool stoppers. The broths were then incubated in an anaerobic cabinet and allowed to grow for 3-5 days. This generally yielded a culture with an absorbance at 540 nm (A540) between 0.2 and 0.4.
Into 1.5 ml disposable plastic cuvettes was added 0.7 ml of assay buffer, followed by 0.2 ml of BAPNA solution and 0.1 ml of bacterial culture. The cuvettes were capped and mixed, then placed in a Pye Unicam 8620 Spectrophotometer (Pye Unicam, Cambridge, UK). The increase in absorbance at 405 nm […] was recorded over a period of 3 minutes.
The percentage inhibition of protease by a given flavour/flavour material was determined by the formula: [formula]
The synergy between flavour/flavour material and an antimicrobial agent against the protease activity of Porphyromonas gingivalis was then determined in the following manner. Firstly, the MIC value of the antimicrobial agent required to cause any inhibition of protease activity was determined using the method generally described in Example 1 for the determination of the MIC value of triclosan. […] The dilution immediately lower than the MIC value was selected as the sub-IC concentration of antimicrobial agent. All flavour materials were tested at 2500 ppm and 5000 ppm.
The percentage inhibition of protease by the flavour material and antimicrobial agent was determined as described above.

Where [2] appears, read: flavour material against S. mutans R9, 48 hours anaerobically at 37° C., read-out: MIC (ppm).

With `O=C/C=C/c1ccccc1` [Cinnamic Aldehyde Extra, cinnamic aldehyde], 625 µg/mL (≈ 4.73 mM) was the least that counted as inhibitory in the assay with Streptococcus mutans R9 (R9, 48 h) (MIC). In the assay with S. mutans, the “Synergy Shown” value is given as “Yes”; the “50% MIC without triclosan” value was “+”; the “50% MIC and 8 ppm triclosan” value is reported as “−”.
Consider `CCCCCCCCC=O` [Aldehyde C9, nonanal], for which the MIC in the assay with Streptococcus mutans R9 (setting [2]) was found to be 5000 µg/mL (≈ 35.2 mM). Further, in the assay on S. mutans, the “Synergy Shown” value is listed as “Yes”; the “50% MIC without triclosan” value is “+”; the “50% MIC and 8 ppm triclosan” value was “−”.
For the compound `CCCCCCCCCC=O` [Aldehyde C10, decanal], the minimum inhibitory concentration (MIC) with Streptococcus mutans R9 (setting [2]) came out at 5000 µg/mL (≈ 32 mM). Further, in the assay on S. mutans, the “Synergy Shown” value is given as “Yes”; the “50% MIC without triclosan” value is recorded as “+”; the “50% MIC and 8 ppm triclosan” value is given as “−”.
Regarding `C/C=C/c1ccc(OC)cc1` [Anethole Synthetic, anethole synthetic], in assay [1], the “Classes of Synergy, increase in inhibition; Antimicrobial Agent Triclosan” value is listed as “− (− = <15% increase in inhibition)” and the “Classes of Synergy, increase in inhibition; Antimicrobial Agent Zinc Sulphate” value is “− (− = <15% increase in inhibition)”.
`CCCCCCCCCCO` [Alcohol C10, decanol]: the MIC with Streptococcus mutans R9 (setting [2]) was 5000 µg/mL (≈ 31.6 mM). For the same compound, in the assay on S. mutans, the “Synergy Shown” value is reported as “Yes”; the “50% MIC without triclosan” value is reported as “+”; the “50% MIC and 8 ppm triclosan” value is “−”. In addition, in assay [1], the “Classes of Synergy, increase in inhibition; Antimicrobial Agent Triclosan” value is listed as “+ (+ = >15% increase in inhibition)” and the “Classes of Synergy, increase in inhibition; Antimicrobial Agent Zinc Sulphate” value is “+ (+ = >15% increase in inhibition)”.
Turning to `CC/C=C\CCO` [Cis-3-hexenol, cis-3-hexenol], in assay [1], the “Classes of Synergy, increase in inhibition; Antimicrobial Agent Triclosan” value was “− (− = <15% increase in inhibition)” and the “Classes of Synergy, increase in inhibition; Antimicrobial Agent Zinc Sulphate” value is listed as “+ (+ = >15% increase in inhibition)”.
Regarding `CCCC(=O)OCc1ccccc1` [Benzyl Butyrate, benzyl butyrate], the “Classes of Synergy, increase in inhibition; Antimicrobial Agent Triclosan” value in assay [1] is recorded as “− (− = <15% increase in inhibition)”.
Consider `O=C(OCc1ccccc1)c1ccccc1` [Benzyl benzoate, benzyl benzoate], for which, in assay [1], the “Classes of Synergy, increase in inhibition; Antimicrobial Agent Triclosan” value is “+ (+ = >15% increase in inhibition)” and the “Classes of Synergy, increase in inhibition; Antimicrobial Agent Zinc Sulphate” value is recorded as “− (− = <15% increase in inhibition)”.
As to `CCCCCCCCCO` [Alcohol C9, nonanol], the MIC in the assay on Streptococcus mutans R9 (setting [2]) came to 5000 µg/mL (≈ 34.7 mM). Also, in the assay on S. mutans, the “Synergy Shown” value is listed as “Yes”; the “50% MIC without triclosan” value was “+”; the “50% MIC and 8 ppm triclosan” value is “−”. Also, in assay [1], the “Classes of Synergy, increase in inhibition; Antimicrobial Agent Triclosan” value is given as “− (− = <15% increase in inhibition)” and the “Classes of Synergy, increase in inhibition; Antimicrobial Agent Zinc Sulphate” value is recorded as “+ (+ = >15% increase in inhibition)”.
For `COC(=O)C=Cc1ccccc1` [Methyl Cinnamate, methyl cinnamate], in assay [1], the “Classes of Synergy, increase in inhibition; Antimicrobial Agent Triclosan” value was “+ (+ = >15% increase in inhibition)” and the “Classes of Synergy, increase in inhibition; Antimicrobial Agent Zinc Sulphate” value is “− (− = <15% increase in inhibition)”.
As to `Oc1cc(Cl)ccc1Oc1ccc(Cl)cc1Cl` [triclosan, 2′,4,4′-trichloro-2-hydroxy-diphenyl ether, reference compound], the MIC with Streptococcus mutans R9 (R9, 48 h, read-out: MIC for triclosan against S. mutans R9) was in the range of 10 to 16 µg/mL (≈ 0.0345 to 0.0553 mM).

The record behind these values is patent US20060210491A1, “Flavoured mouth wash composition” (priority 2003, published 2006).
